Results reported in PubChem BioAssay AID1996.
Values after ≈ are worked out from the molar mass of the structure shown.

Details: buffer; pH 7.4; 200.0 µM
`CCOc1ccccc1N1CC(C(=O)NC2CCCCCC2)CC1=O` (stereo not drawn) showed a solubility kinetic of 45.7 µg/mL (≈ 133 µM). Work on `CN(C)NC(=O)c1csnc1-c1c(Cl)cccc1Cl` yielded a solubility kinetic of over 47.4 µg/mL. `CC(C)c1ccc(C(=O)OCC(=O)c2c(N)n(C)c(=O)n(C)c2=O)cc1` showed a solubility kinetic of 4.4 µg/mL (≈ 12.2 µM). Compound `CCOC(=O)c1c(NC(=O)COC(=O)c2cccnc2OCC)sc(C(=O)N(CC)CC)c1C` has a solubility kinetic of 4.6 µg/mL (≈ 9.36 µM). For `Cn1cnc([N+](=O)[O-])c1Cl`, the solubility kinetic was over 24.2 µg/mL. Work on `C=CCc1ccccc1OCC(O)CN1CCOCC1` (stereo not drawn) yielded a solubility kinetic of over 41.6 µg/mL. In the case of `COc1cc(SC)ccc1C(=O)NC1CCCc2ccccc21` (stereo not drawn), the solubility kinetic is reported as under 0.7 µg/mL. `CS(=O)(=O)N1CCC(C(=O)NCc2ccc(Cl)cc2)CC1` gave a solubility kinetic of over 49.6 µg/mL. For `Cc1[nH]c2c([N+](=O)[O-])cccc2c1C`, the solubility kinetic was 1.2 µg/mL (≈ 6.31 µM). Work on `Cc1noc(C)c1COc1cccc(C(=O)OC(C)C#N)c1` (stereo not drawn) yielded a solubility kinetic of 43.2 µg/mL (≈ 144 µM). `CC(=O)N1CCC(c2c[nH]c3ccccc23)CC1` gave a solubility kinetic of over 36.3 µg/mL. With `CC(=O)Nc1cccc(C(=O)NC(C)c2ccc(-n3ccnc3)cc2)c1` (stereo not drawn) the solubility kinetic was 45.5 µg/mL (≈ 131 µM). Work on `CC(C)(C)C(=O)/C=c1\[nH]c(=O)/c(=C\c2ccccc2F)s1` yielded a solubility kinetic of under 0.7 µg/mL. For `O=C1CCC/C1=C/Nc1cccc(F)c1`, the solubility kinetic was 23.6 µg/mL (≈ 115 µM). `Cc1csc(NC(=O)CSC2=NCCS2)n1` gave a solubility kinetic of 40.5 µg/mL (≈ 148 µM). For `Cc1ccc(C)c(-c2csc(NC(=O)c3c(C)noc3C)n2)c1`, the solubility kinetic was 2.1 µg/mL (≈ 6.41 µM). Work on `COc1ccc(OC)c(Nc2ncnc3sccc23)c1` yielded a solubility kinetic of 42.2 µg/mL (≈ 147 µM). For `Cc1nn(CC(=O)NCCCN2CCCC2=O)c(C)c1[N+](=O)[O-]`, the solubility kinetic was over 48.5 µg/mL. With `COC(/C(=N/O)c1ccc(Cl)cc1)c1ccccc1` (stereo not drawn) the solubility kinetic was 35.8 µg/mL (≈ 130 µM). `CC(CNC(=O)c1ccccc1[N+](=O)[O-])NC(=O)c1ccccc1[N+](=O)[O-]` (stereo not drawn) showed a solubility kinetic of over 55.9 µg/mL. `CCc1c(O)nc(SCC(=O)c2ccccc2)n(-c2ccccc2)c1=O` gave a solubility kinetic of 44.6 µg/mL (≈ 122 µM). Compound `CCCc1c(C)nc(SCC(=O)C(C)(C)C)nc1OC(=O)N(C)C` has a solubility kinetic of 46.8 µg/mL (≈ 132 µM). With `S=C(NCc1ccco1)N/N=C/c1ccncc1` the solubility kinetic was over 39 µg/mL. Work on `Cc1cc(/C=C2\SC(=S)N(C)C2=O)c(C)n1-c1cccc(O)c1` yielded a solubility kinetic of 0.4 µg/mL (≈ 1.16 µM). With `CCOC(=O)c1sc(NC(=O)C2=COCCO2)c(C#N)c1C` the solubility kinetic was 13.5 µg/mL (≈ 41.9 µM). With `O=C(Cc1ccccc1)NNC(=S)NC(=O)c1cccnc1` the solubility kinetic was over 47.2 µg/mL. In the case of `CCN1C(=O)CSC1=Nc1ccc(OC)cc1`, the solubility kinetic is reported as 33.4 µg/mL (≈ 133 µM). In the case of `O=C(c1cc(F)c(F)c(F)c1F)N1CCN(C(=O)C2CCCO2)CC1` (stereo not drawn), the solubility kinetic is reported as over 54 µg/mL. `CCN(CC)c1ccc(NC(=O)Nc2cccc3ccccc23)cc1` gave a solubility kinetic of 0.6 µg/mL (≈ 1.8 µM). With `NCCNC[C@@H]1COC2(CCCCCCCCCCC2)O1` the solubility kinetic was 32.7 µg/mL (≈ 110 µM). For `Cc1ccc(C)c(NS(=O)(=O)c2ccccc2C)c1`, the solubility kinetic was 38.8 µg/mL (≈ 141 µM). `Cc1c(O)ccc(C(=O)CN2CCN(c3ccccc3)CC2)c1O` gave a solubility kinetic of 12 µg/mL (≈ 36.8 µM). For `CCCn1c(C)cc(C=O)c1C`, the solubility kinetic was 16.3 µg/mL (≈ 98.6 µM). In the case of `O=C(Cc1c(F)cccc1Cl)OCC(=O)N1CCN(c2ccccc2)CC1`, the solubility kinetic is reported as 39.6 µg/mL (≈ 101 µM). For `Cc1cc(SCc2ccc(Cl)cc2Cl)nc(=O)[nH]1`, the solubility kinetic was 4.6 µg/mL (≈ 15.3 µM). For `Cn1cccc1C(=O)NCc1ccc(Cl)cc1`, the solubility kinetic was over 37.3 µg/mL. With `CCOc1ccc(NC(=O)CCN2CCN(C)CC2)cc1` the solubility kinetic was over 43.7 µg/mL. Work on `COc1cc(/C=C2/C(=O)ON=C2C)cc(Cl)c1O` yielded a solubility kinetic of over 40.2 µg/mL. For `CCOC(=O)C1=C(CN2CCCCCC2)NC(=O)NC1c1ccc2c(c1)OCO2` (stereo not drawn), the solubility kinetic was 53.5 µg/mL (≈ 133 µM). `CSc1ncc2c(=O)[nH]c(-c3ccccc3)nc2n1` showed a solubility kinetic of over 40.5 µg/mL. In the case of `CC(=O)c1ccc(NC(=S)NC2CCCC(C)C2C)cc1` (stereo not drawn), the solubility kinetic is reported as 9.7 µg/mL (≈ 31.9 µM). With `N/C(=N\c1nc2ccccc2o1)NC(=O)/C=C/c1ccccc1` the solubility kinetic was under 0.2 µg/mL. In the case of `CCOc1cc([N+](=O)[O-])c2nc(N)sc2c1`, the solubility kinetic is reported as 4.3 µg/mL (≈ 18 µM). For `Cc1cccc2c(=O)cc(C(F)(F)F)[nH]c12`, the solubility kinetic was over 34.1 µg/mL. For `Cc1nc2ccccc2n1C(C)c1ccccc1` (stereo not drawn), the solubility kinetic was over 35.4 µg/mL. For `Cc1cc(OC(=O)c2cccc(F)c2)c([N+](=O)[O-])c(=O)[nH]1`, the solubility kinetic was over 43.8 µg/mL. `CCN1CCC(O)(C#Cc2ccccc2)CC1` gave a solubility kinetic of 33.5 µg/mL (≈ 146 µM). In the case of `Cc1ccc(C(=O)N/C(=C\c2cccnc2)C(=O)N2CCCC2)cc1`, the solubility kinetic is reported as over 50.3 µg/mL.
